≈ marks a conversion by molar mass, not a printed value.
Key:
Plasmodium falciparum = assay: Antiplasmodial activity against chloroquine-sensitive Plasmodium falciparum 3D7; format: functional, organism-based
Leishmania major = assay: Antileishmanial activity against Leishmania major promastigotes after 20 hrs; format: functional, organism-based
[1] = Inhibition of phytohemagglutininin A-induced proliferation in human lymphocytes assessed as radiolabeled thymidine uptake; format: cell-based; conditions: Lymphocyte

- IC50 (Plasmodium falciparum): 3 µg/mL (≈ 10.6 µM)
- IC50 (Leishmania major): 1.4 µg/mL (≈ 4.92 µM)
Compound: C[C@H](O)C#CC#CC#CC#CCCCCCCCC(=O)O [MINQUARTYNOIC ACID]
- IC50 [1]: 5.3 µg/mL (≈ 18.6 µM)
